Test results taken from patent US20070110885A1, “Method for controlling retention of an organic compound or of a plurality of organic compounds inside a liquid or solid phase and applications of said method, in particular in the agri-food domain” (priority 2002, published 2007).
One block for each compound: values may come before it.

Assays:
Type in all cases: physicochemical
[1] = Static headspace measurement of aroma release from a liquid phase to the vapour phase versus redox potential modified by gas bubbling; conditions: for effect of redox on aroma release/retention (headspace): FIG. 3, 4, 5; for change of mass sharing coefficient Ki when the redox potential of the first liquid phase is lowered: liquid phase/gas phase
From the text: The study of the checking of the mass sharing coefficient Ki of an organic compound (i) between two phases, respectively a first liquid phase and a second vapour phase, as a function of the redox potential value includes the quantification of the organic compound (i) in the vapour phase at equilibrium, by the static headspace technique. In the examples, the method of the invention is illustrated with aroma-type organic compounds (i).
The static headspace technique consists in analyzing the vapours in equilibrium above a solution placed in a confined atmosphere at a given temperature. The vapour analysis in gas chromatography (CPG) gives the volatile compound concentration of the “head space”.
The aroma solutions are prepared in a solution of 50 mM NaCl, the pH of which has been adjusted to pH 3 with HCl (1N) or at pH 7.5 with NaOH (1N).
Furthermore, tests have also been realized in the presence of a lactoserum protein, the β-lactoglobuline, dispersed (3%) in a solution of 50 mM NaCl at pH 3 or pH 7.5, or in whole or skimmed milk.
The redox is modified by bubbling a gas (hydrogen, nitrogen, helium, or oxygen) at a flowrate of 20 mL.min^−1 for a previously determined time (8 min). The redox measurement is realized after the gas bubbling step with a redox measurement electrode connected to a pH meter-voltameter. The thus prepared solutions are distributed on the basis of 10 mL in brown flasks of 40 mL (Supelco, France) closed by Mininert valve plugs (Supelco). […]
A control is realized in the presence of air: the bubbling step is not realized, only the pressurization occurs, in the same conditions as the other gasses.
The flasks are then equilibrated in a water bath at 30° C. for 1 hr 30. At least 3 brown flasks are prepared for each gas, a flask serving only for one injection.
At the equilibrium, 1 mL of vapour phase is taken with a 1 mL gas syringe (SGE), then injected in a gas chromatograph (CPG) provided with a DB-WAX column (J&W Scientific, diameter 0.32 mm, length 30 m, phase thickness 0.5 μm) and a flame ionization detector. The injector and detector temperatures are respectively 250° C. and 260° C. The vector gas velocity (hydrogen) at 143° C. is of 37 cm.sec-^1. The signal acquisition is achieved with a chromatogram acquisition and treatment software developed in the laboratory.
Thus, the amount of aroma present in the vapour phase is determined for each gas.

[2] = Evaluation of the aroma losses during gas bubbling (Tenax entrapment and pentane extraction); conditions: 50 ppm in NaCl 50 mM pH 7.5
Method: 4. Evaluation of the Losses During the Bubbling
The aroma losses upon bubbling have been evaluated by entrapment on an absorbing polymer (Tenax) of the gas effluent at the flask outlet and by extraction of the liquid phase with pentane. The same is done for all the gasses being used.
The loss test is made on a 50 mL of a 2-nonanone solution (50 ppm) in NaCl (50 mM, pH 7.5).
The gas is simultaneously bubbled (8 min) at the same flowrate of 20 mL.min^−1 in the flask, then the gas effluent is entrapped on Tenax at the flask outlet. This Tenax trap is afterwards desorbed on a TCT Chrompak apparatus coupled with a HP chromatograph provided with a FID detector.
The amount of aroma entrapped on Tenax is determined in comparison with an external calibration curve. This calibration curve is obtained as described hereinafter: 1 μl of 2-nonanone solution is deposited in pentane in the glass cotton of the Tenax tube upper part, then the Tenax tube is desorbed in the same conditions as for the analysis. Different concentrations have been tested.
The amount of aroma remaining in the liquid phase is determined by extraction of the aroma solution (5 mL) by pentane (5 mL). One μl of the organic phase is injected in split/splitless in CPG. A comparison is made with an external calibration, obtained by injection of 1 μl of 2-nonanone solution in pentane.

[3] = Retention of aroma between aqueous phase (water) and organic liquid phase (dichloromethane) versus redox; conditions: water/dichloromethane mixture; FIG. 9
From the text: FIG. 9 illustrates the results of a measurement of the retention degree of 2-nonanone between an aqueous phase (water) and an organic liquid phase (dichloromethane) with non pressurized flasks (diamonds) or pressurized flasks with hydrogen (squares).
The experiment of Example 2 is realized, but in a mixture of water (aqueous phase)/dichloromethane (CH2Cl2, organic phase).

[4] = Static headspace measurement with redox modified by addition of molecules (DTT, potassium ferricyanide)
Method: 1. Preparation of the Reducing Medium
The reducing medium is obtained by addition of DTT(1,4-dithiothreitol). The ultrapure water employed for the solution preparation is degassed with a high gas flowrate during 1 h. La 2-nonanone solution (50 ppm) is prepared through addition of such aroma into the degassed water; the solution volume has been chosen so that a minimum of air exists between the plug and the solution. The thus prepared solution is stirred for homogenisation for 30 min.
An aliquot of this solution is added with DTT (10 g.l^−1) and then this solution is stirred for 30 min.
In order to prevent the dilution phenomenon, another protocol has been used: the degassed water is added with DTT (10 g.l^−1), then the aroma is added.
The thus prepared solutions are distributed at a level of 10 mL in 40 mL brown flasks (Supelco, France) closed by Mininert valves (Supelco). The flasks are pressurized with nitrogen for 1 min with a flowrate of 260 mL.min^−1. The overpressure is then evacuated. The flasks are then equilibrated during 1 h 30 in a water bath at 30° C. For each one of the conditions, 4 repetitions are realized.
2. Preparation of the Oxidizing Medium
The oxidizing medium is obtained by addition of potassium ferricyanide.
Two aroma solutions are prepared: for solution 1, the 2-nonanone is solubilized in water and then the solution is stirred for 30 min; for solution 2, the potassium ferricyanide is dissolved in water, then the 2-nonanone is added. This solution is afterwards stirred during 30 min.
The thus prepared solutions are distributed at a level of 10 mL in 40 mL brown flasks (Supelco, France) closed by Mininert valves (Supelco).
The flasks are then equilibrated during 1 h 30 in a water bath at 30° C. For each one of the conditions, 4 repetitions are realized.

SMILES: C=CCN=C=S [AITC, allyl isothiocyanate]
effect of redox on aroma release/retention (headspace) ([1]; conditions of Examples 2, 3, 4): −30% | change of mass sharing coefficient Ki when the redox potential of the first liquid phase is lowered [1]: growth of the mass sharing coefficient Ki value

aroma losses during bubbling ([2]; helium): 0.5% | aroma losses during bubbling ([2]; hydrogen): 0.3% | aroma losses during bubbling ([2]; nitrogen): 2% | aroma losses during bubbling ([2]; oxygen): 2.3% | aroma losses during bubbling ([2]; regardless of the gas employed, bubbling 8 min at 20 mL/min): < 3% | effect of a positive redox potential value on release ([1]; aqueous liquid phase contacted with 100% oxygen or air (21% oxygen), same with 100% nitrogen): favours the release or the transfer | retention within the liquid phase with helium gas ([1]; aqueous solution pH 7.5, helium, redox +400 mV): no significant difference | modification of the medium aroma release at low redox (headspace) ([1]; aqueous solution pH 7.5, hydrogen -320 mV versus nitrogen/oxygen about +500 mV, FIG. 1): ~−30% | effect when the atmosphere is neutral or oxidizing and the redox increases ([1]; aqueous solution pH 7.5, hydrogen, non pressurized flask, FIG. 8): effect inverses | effect at low redox under reducing atmosphere ([1]; aqueous solution pH 7.5, hydrogen, pressurized flask, FIG. 8): retention effect | modification of the aroma release at low redox (headspace) ([1]; aqueous solution, acid medium, FIG. 1): −20% | effect at high redox ([1]; skimmed milk, FIG. 7): no effect | retention effect at low redox ([1]; skimmed milk, FIG. 7): −20% | redox effect on the aroma release ([1]; whole milk, FIG. 7): do not show any redox effect | retention in the aqueous phase at low redox [3]: better retained in the aqueous phase
SMILES: CCCCCCCC(C)=O [2-nonanone]
difference of retention depending on the redox ([1]; aqueous solution with beta-lactoglobuline at 3%, pH 7.5 and acid medium, FIG. 2): does not show any difference of retention depending on the redox | effect of a negative level of redox potential on retention ([1]; liquid phase contacted with gas containing 100% hydrogen): favours the 2-nonanone retention in the liquid phase | change of mass sharing coefficient Ki when the redox potential of the first liquid phase is lowered [1]: growth of the mass sharing coefficient Ki value | change of mass sharing coefficient Ki at low redox potential ([1]; skimmed milk, pH 4.6): reduction of the mass sharing coefficient value Ki | effect of reducing the redox potential by a reducing compound ([4]; aqueous liquid phase, dithiothreitol (DTT) added): favours the 2-nonanone retention in the liquid phase | effect of increasing the redox potential by an oxidizing compound ([4]; aqueous liquid phase, potassium ferricyanide added): favours the 2-nonanone release or transfer towards the second gas phase | release in the vapour phase in a reducing medium versus oxidizing medium ([4]; water, 50 ppm, DTT 10 g/l versus potassium ferricyanide, FIG. 10): less 2-nonanone released in the vapour phase than in the oxidizing medium

effect of redox on aroma release/retention (headspace) ([1]; conditions of Examples 2, 3, 4): +20%
SMILES: CC(=O)C(C)=O [diacetyl]
change of mass sharing coefficient Ki when the redox potential of the first liquid phase is lowered [1]: increase of the mass sharing coefficient Ki

effect of redox on aroma release/retention (headspace), in words ([1]; conditions of Examples 2, 3, 4, FIG. 5): no effect | change of mass sharing coefficient Ki when the redox potential of the first liquid phase is lowered [1]: lack of significant modification
SMILES: CCCCCC(=O)OCC [ethyl hexanoate]
